# Several values for one entry are separate records, joined by “and”; a condition that tells them apart may be missing. Equal values may be shown once. Read-outs that look alike come from different tables or passages of the source.
# Tests used:
# CYP125 [1] = molecular target: T1, CYP125 (Mycobacterium tuberculosis, UniProt P9WPP1); assay type: binding; details: compound 100 µM, P450 5 µM; high spin population; '-' = no HS maxima present
# CYP142 [2] = molecular target: T2, CYP142 (Mycobacterium tuberculosis, UniProt P9WPL5)
# T2 sequence (P9WPL5 whole entry): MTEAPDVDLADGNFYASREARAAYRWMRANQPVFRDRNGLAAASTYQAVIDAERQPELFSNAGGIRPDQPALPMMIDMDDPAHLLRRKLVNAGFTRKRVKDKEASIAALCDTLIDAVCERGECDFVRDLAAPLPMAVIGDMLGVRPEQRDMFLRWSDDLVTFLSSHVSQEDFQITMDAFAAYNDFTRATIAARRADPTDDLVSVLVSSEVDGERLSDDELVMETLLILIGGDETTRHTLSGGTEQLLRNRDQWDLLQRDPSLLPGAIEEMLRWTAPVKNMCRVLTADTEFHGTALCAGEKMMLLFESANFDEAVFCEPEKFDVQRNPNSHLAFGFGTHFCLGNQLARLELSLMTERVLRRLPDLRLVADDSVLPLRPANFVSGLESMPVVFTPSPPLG
# CYP142 [3] = molecular target: T2, CYP142; details: compound 100 µM, P450 5 µM
# CYP125 [4] = molecular target: T1, CYP125; test: biochemical; assay type: binding; details: read-out: KD (μM) CYP125
# CYP2D6 = molecular target: T3, CYP2D6 (Homo sapiens, UniProt P10635); test: Inhibition of human liver microsomal P450s; assay type: in vitro ADME
# T3 construct: from tissue; host or cells: human liver microsomes
# T3 sequence (P10635 whole entry): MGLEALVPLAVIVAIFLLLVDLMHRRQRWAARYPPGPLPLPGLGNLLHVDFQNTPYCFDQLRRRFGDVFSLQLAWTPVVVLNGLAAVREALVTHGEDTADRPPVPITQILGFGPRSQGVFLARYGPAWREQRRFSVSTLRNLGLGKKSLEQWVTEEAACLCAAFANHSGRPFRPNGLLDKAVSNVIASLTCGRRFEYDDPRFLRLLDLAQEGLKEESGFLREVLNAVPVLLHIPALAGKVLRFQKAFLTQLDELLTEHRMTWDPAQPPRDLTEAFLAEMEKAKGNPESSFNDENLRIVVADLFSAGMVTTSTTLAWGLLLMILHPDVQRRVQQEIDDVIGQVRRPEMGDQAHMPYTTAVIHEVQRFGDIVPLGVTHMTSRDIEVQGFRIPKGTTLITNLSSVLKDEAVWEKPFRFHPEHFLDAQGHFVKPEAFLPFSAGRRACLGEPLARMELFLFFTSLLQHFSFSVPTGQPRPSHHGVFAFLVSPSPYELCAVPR
# Excerpt: (§1) Table S8. Inhibition of human liver microsomal P450s. Inhibition constants (IC 50 values, µM) of
# (§2) following substrates: CYP1A-ethoxyresorufin, CYP2C19- mephenytoin, CYP2C9-tolbutamide, CYP2D6-
# (§3) dextromethorphan, CYP3A4-midazolam/testosterone.
# CYP3A4 = molecular target: T4, CYP3A4 (Homo sapiens, UniProt P08684); test: Inhibition of human liver microsomal P450s; assay type: in vitro ADME
# T4 construct: from tissue; host or cells: human liver microsomes
# T4 sequence (P08684 whole entry): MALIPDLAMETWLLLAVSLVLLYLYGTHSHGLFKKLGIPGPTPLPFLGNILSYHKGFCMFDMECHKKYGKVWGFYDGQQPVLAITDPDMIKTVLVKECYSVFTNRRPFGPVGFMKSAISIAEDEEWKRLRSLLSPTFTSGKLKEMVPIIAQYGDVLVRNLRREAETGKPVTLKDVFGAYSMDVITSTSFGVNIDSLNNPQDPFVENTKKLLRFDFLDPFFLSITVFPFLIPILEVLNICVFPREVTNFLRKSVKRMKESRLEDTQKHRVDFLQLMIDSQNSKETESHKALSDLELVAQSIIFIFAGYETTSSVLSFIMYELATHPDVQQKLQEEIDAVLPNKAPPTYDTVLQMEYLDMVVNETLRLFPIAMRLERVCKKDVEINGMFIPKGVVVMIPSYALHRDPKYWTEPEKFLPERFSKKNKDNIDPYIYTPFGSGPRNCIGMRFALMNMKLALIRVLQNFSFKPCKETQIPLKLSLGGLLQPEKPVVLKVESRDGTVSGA
# Excerpt: as §1, §2, §3
# CYP2C19 = molecular target: T5, CYP2C19 (Homo sapiens, UniProt P33261); test: Inhibition of human liver microsomal P450s; assay type: in vitro ADME
# T5 construct: from tissue; host or cells: human liver microsomes
# T5 sequence (P33261 whole entry): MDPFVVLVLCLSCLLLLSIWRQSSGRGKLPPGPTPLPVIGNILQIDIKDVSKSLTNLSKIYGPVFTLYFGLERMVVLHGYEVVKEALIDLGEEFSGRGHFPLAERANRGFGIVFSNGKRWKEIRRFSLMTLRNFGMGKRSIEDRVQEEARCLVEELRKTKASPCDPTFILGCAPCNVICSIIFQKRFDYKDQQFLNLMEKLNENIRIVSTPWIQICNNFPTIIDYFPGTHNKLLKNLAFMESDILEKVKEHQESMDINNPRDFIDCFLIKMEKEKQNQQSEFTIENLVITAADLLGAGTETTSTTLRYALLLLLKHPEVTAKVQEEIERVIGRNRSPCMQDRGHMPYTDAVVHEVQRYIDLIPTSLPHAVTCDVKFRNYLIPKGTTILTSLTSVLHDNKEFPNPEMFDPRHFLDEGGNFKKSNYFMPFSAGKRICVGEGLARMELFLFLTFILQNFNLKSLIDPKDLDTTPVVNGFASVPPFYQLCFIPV
# Excerpt: as §1, §2, §3
# CYP1A = molecular target: T6, CYP1A (Homo sapiens, UniProt P05177); test: Inhibition of human liver microsomal P450s; assay type: in vitro ADME
# T6 construct: from tissue; host or cells: human liver microsomes
# T6 sequence (P05177 2-516 limits assumed): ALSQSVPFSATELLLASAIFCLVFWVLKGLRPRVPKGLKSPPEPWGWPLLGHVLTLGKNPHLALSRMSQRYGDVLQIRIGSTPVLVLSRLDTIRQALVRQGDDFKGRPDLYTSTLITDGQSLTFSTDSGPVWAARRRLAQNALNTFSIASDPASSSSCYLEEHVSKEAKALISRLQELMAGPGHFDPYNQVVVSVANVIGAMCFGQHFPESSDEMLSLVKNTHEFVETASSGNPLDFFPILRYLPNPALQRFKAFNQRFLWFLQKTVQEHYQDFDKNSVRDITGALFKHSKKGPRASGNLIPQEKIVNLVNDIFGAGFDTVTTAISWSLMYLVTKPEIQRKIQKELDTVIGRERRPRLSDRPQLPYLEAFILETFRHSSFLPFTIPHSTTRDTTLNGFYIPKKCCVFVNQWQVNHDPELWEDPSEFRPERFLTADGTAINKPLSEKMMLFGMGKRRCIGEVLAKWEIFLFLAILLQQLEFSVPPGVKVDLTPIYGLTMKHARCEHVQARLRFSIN
# Excerpt: as §1, §2, §3
# CYP2C9 = molecular target: T7, CYP2C9 (Homo sapiens, UniProt P11712); test: Inhibition of human liver microsomal P450s; assay type: in vitro ADME
# T7 construct: from tissue; host or cells: human liver microsomes
# T7 sequence (P11712 whole entry): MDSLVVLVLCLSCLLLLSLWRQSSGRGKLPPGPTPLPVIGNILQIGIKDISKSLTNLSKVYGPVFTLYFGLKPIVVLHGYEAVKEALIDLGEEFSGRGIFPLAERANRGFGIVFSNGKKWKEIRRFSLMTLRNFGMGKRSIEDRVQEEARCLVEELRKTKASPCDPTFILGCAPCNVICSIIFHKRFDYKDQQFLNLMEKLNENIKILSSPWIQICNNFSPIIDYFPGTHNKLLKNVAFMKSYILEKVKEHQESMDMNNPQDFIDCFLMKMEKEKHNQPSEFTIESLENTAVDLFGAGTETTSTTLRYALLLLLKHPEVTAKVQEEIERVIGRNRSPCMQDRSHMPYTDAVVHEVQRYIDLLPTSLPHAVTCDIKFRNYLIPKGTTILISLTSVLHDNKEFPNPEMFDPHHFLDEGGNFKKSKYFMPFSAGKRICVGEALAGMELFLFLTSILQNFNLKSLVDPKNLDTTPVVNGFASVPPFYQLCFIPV
# Excerpt: as §1, §2, §3
# CYP125 [5] = molecular target: T1, CYP125; test: LC-MS substrate turnover assay (cholest-4-en-3-one); assay type: biochemical; details: for IC50: CYP125 0.5 μM, cholest-4-en-3-one 5 µM, LC-MS, read-out: CYP125A1 IC50; for Ki: estimated by Cheng-Prusoff, cholest-4-en-3-one Km CYP125 = 2.1 µM, read-out: CYP125A1 KI
# Mtb H37Rv [6] = test: Extracellular Mtb growth on cholesterol, MABA MIC99; assay type: cell-based, Mycobacterium tuberculosis; details: read-out: MABA-MIC99 (W2) H37Rv, cholesterol
# Mtb (Erdman) = test: Extracellular Mtb (Erdman) growth on cholesterol-supplemented (0.01%) media, MABA; assay type: cell-based, Mycobacterium tuberculosis; details: MABA 1 week post-compound treatment, mean ± SD n = 3, read-out: mixed media IC50 (Erdman)
# [7] = tested on: Mtb H37Rv pATB45luc in THP-1 macrophages; test: microbe, parasite or virus in culture; assay type: cell-based; details: Mycobacterium tuberculosis, 120 h, 5 days post-compound treatment, mean ± SD n = 2, read-out: intracellular growth Mtb IC50
# Mtb H37Rv [8] = test: Depletion of intracellular ATP (BacTiter Glo), Mtb on cholesterol; assay type: cell-based, Mycobacterium tuberculosis; details: cholesterol as sole carbon source
# Mtb CDC1551 [9] = test: Depletion of intracellular ATP, Mtb on glucose; details: glucose as sole carbon source
# Method: (§4) (Mtb) H37Rv or CDC1551 strains were grown in Middlebrook 7H9 broth medium (Difco) supplemented with 0.3 g/L casitone, 0.81 g/L NaCl, 0.05% (v/v) tyloxapol, and either 97 mg/L cholesterol, 4 g/L glucose, or 0.2% glycerol. For inhibitor assays, a 10-fold serial dilution of the test compounds was made in the desired medium in duplicate rows of a 96-well plate. Mtb cells were then added to all the wells at the final concentration of 1 × 10^4 CFU, and plates were incubated at 37 °C for up to 15 days. Minimum inhibitory concentrations (MIC99) were determined using the Microplate Alamar Blue Assay (MABA) on day 15.
# (§5) BacTiter Glo reagent (Promega) was added to microtiter plates (1:10 dilution) and luminescence was recorded after 15 min of incubation at room temperature. […] Isoniazid or p-amino salicylic acid were used as positive control compounds for all experiments. Reported MIC and IC50 values are the mean of duplicate treatments.
# Mtb CDC1551 [10] = test: Extracellular Mtb growth on cholesterol, MABA MIC99; assay type: cell-based, Mycobacterium tuberculosis; details: read-out: MABA-MIC99 (W2) CDC1551, cholesterol
# Mtb CDC1551 [11] = test: Depletion of intracellular ATP (BacTiter Glo), Mtb on cholesterol; assay type: cell-based; details: Mycobacterium tuberculosis, cholesterol as sole carbon source
# [12] = tested on: uninfected THP-1 macrophages; test: THP-1 cytotoxicity (ATPLite); details: for THP-1 LD50: uninfected THP-1 macrophages, ATP-dependent luminescence, 5 days, top concentration 50 μM
# H37Rv Mtb = test: Extracellular Mtb growth, MABA MIC90 (drug susceptible strain); assay type: cell-based; details: Mycobacterium tuberculosis
# [13] = tested on: MDR-TB strain K26b00MR 113; test: microbe, parasite or virus in culture; assay type: cell-based, Mycobacterium tuberculosis; details: for MIC90: Mycobacterium tuberculosis
# CYP142 [14] = molecular target: T2, CYP142; test: biochemical
# Mtb H37Rv [15] = tested on: Mtb H37Rv
# Method: as §4, §5
# [16] = CYP3A4 IC50 (midazolam), substrate midazolam (first value of cell)
# [17] = CYP3A4 IC50 (testosterone), substrate testosterone (second value of cell)
# [18] = Mycobacterium tuberculosis, H37RV, 336 h, cholesterol as sole carbon source, 2 weeks post-compound treatment
# [19] = Mycobacterium tuberculosis, ERDMAN, 168 h
# [20] = Mycobacterium tuberculosis, H37RV, 336 h, 2 weeks post-compound treatment, read-out: ATP-IC50 (W2) H37Rv, cholesterol
# [21] = read-out: ATP IC50 (W1) CDC1551, glucose media, 1 week
# [22] = Mycobacterium tuberculosis, CDC1551, 336 h, cholesterol as sole carbon source, 2 weeks post-compound treatment
# [23] = CDC1551, 168 h, 1 week post-compound treatment, read-out: ATP-IC50 (W1) CDC1551, cholesterol
# [24] = CDC1551, 336 h, 2 weeks post-compound treatment, read-out: ATP-IC50 (W2) CDC1551, cholesterol
# [25] = Mycobacterium tuberculosis, H37RV, 168 h, 1 week post-compound treatment, read-out: ATP-IC50 (W1) H37Rv, cholesterol
# [26] = cholesterol as sole carbon source, 2 weeks post-compound treatment
# [27] = read-out: ATP IC50 (W2) CDC1551, glucose media, 2 weeks
# T1 sequence (P9WPP1 whole entry): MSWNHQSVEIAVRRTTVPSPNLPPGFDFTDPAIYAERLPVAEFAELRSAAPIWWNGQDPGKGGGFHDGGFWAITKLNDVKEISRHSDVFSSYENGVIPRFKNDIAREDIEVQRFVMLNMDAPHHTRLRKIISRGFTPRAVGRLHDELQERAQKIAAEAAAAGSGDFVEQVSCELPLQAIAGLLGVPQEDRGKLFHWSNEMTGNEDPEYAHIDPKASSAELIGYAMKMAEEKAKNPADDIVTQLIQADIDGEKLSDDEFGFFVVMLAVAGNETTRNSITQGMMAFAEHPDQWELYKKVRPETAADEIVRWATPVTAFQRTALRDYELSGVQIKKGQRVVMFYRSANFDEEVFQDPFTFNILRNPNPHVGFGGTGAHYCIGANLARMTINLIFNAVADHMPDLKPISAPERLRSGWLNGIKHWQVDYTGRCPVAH
Compound,Kd (CYP125 [4]) [µM],IC50 (CYP125 [5]) [µM],Ki (CYP125 [5]) [µM],MIC99 (Mtb H37Rv [6]; [18]) [µM],IC50 [7] [µM],IC50 (Mtb H37Rv [8]; [20]) [µM],IC50 (Mtb CDC1551 [9]; [21]) [µM],MIC99 (Mtb CDC1551 [10]; [22]) [µM],IC50 (Mtb CDC1551 [11]; [23]) [µM],IC50 (Mtb CDC1551 [11]; [24]) [µM],IC50 (Mtb H37Rv [8]; [25]) [µM],also measured
N-Phenylpyridin-4-amine [2a],35 ± 5.8,–,–,–,–,–,–,–,–,–,–,CYP125 Δλmax (nm) HS (CYP125 [1]): 0 nm; Kd (CYP142 [2]): 1.1 ± 0.2 µM; CYP142 Δλmax (nm) (CYP142 [3]): 4 nm
"O=S(=O)(Nc1ccc(Cc2ccncc2)cc1)c1ccc(OC(F)(F)F)cc1 [5k, N-(4-(Pyridin-4-ylmethyl)phenyl)-4-(trifluoromethoxy)benzenesulfonamide]",0.55 ± 0.12,0.91 ± 0.22,0.27,25,13 ± 0.18,2.3,19,25,1.2,9.4,–,IC50 (CYP2D6): 0.18 µM; IC50 (CYP3A4; [16]): 0.26 µM; IC50 (CYP3A4; [17]): 1.25 µM; IC50 (CYP2C19): 3.1 µM; IC50 (CYP1A): 5.95 µM; IC50 (CYP2C9): 5.27 µM; IC50 (Mtb (Erdman); [19]): 22 ± 2 µM; THP-1 LD50 [12]: 32 µM
"O=C(Nc1ccc(Cc2ccncc2)cc1)[C@H](Cc1c[nH]c2ccccc12)NCc1ccccc1 [5d, (S)-2-(Benzylamino)-3-(1H-indol-3-yl)-N-(4-(pyridin-4-ylmethyl)phenyl)propanamide]",0.072 ± 0.026,0.79 ± 0.09,0.23,25,2.8 ± 0.2,4.7,19,25,4.7,38,4.7,"IC50 (CYP2D6): 0.46 µM; IC50 (CYP3A4; [16]): 0.52 µM; IC50 (CYP3A4; [17]): 1.49 µM; IC50 (CYP2C19): < 0.1 µM; IC50 (CYP1A): 0.11 µM; IC50 (CYP2C9): 0.14 µM; IC50 (Mtb (Erdman); [19]): 18 ± 3 µM; IC50 (Mtb H37Rv [8]; 1 week post-compound treatment, read-out: ATP-IC50 (W1) H37Rv, cholesterol): < 5 µM; THP-1 cytotoxicity in words ([12]; concentrations up to 50 μM): weakly cytotoxic; THP-1 LD50 [12]: 45 µM"
"NNC(=O)c1ccncc1 [Isoniazid, isoniazid, reference compound]",–,–,–,< 0.1,0.1 ± 0.01,< 0.1,–,–,–,–,< 0.1,"MIC99 (Mtb H37Rv [6]; cholesterol as sole carbon source, 2 weeks post-compound treatment, listed as Inh.): <0.1 µM; MIC90 (H37Rv Mtb; 168 h, MABA 1 week post-compound treatment, glucose-casitone (standard) media, read-out: MIC90 (W1) H37Rv): 0.19 to 0.39 µM; MIC90 (H37Rv Mtb; 336 h, MABA 2 weeks post-compound treatment, read-out: MIC90 (W2) H37Rv): 0.39 µM; MIC90 (W1) MDR-TB ([13]; MABA 1 week post-compound treatment, K26b00MR 113): 12.5 to 25 µM; fold higher value against MDR-TB than H37Rv ([13]; MABA, 1 and 2 weeks): 50–150 fold; MIC90 ([13]; 168 h, read-out: MIC90 (W1) MDR-TB, MABA 1 week post-compound treatment, K26b00MR 113): 13 to 25 µM; MIC90 ([13]; 336 h, read-out: MIC90 (W2) MDR-TB, MABA 2 weeks post-compound treatment, K26b00MR 113): 50 µM"
"O=C(NCc1ccc2[nH]ccc2c1)c1ccc(Cc2ccncc2)cc1 [5f, N-((1H-Indol-5-yl)methyl)-4-(pyridin-4-ylmethyl)benzamide]",0.59 ± 0.24,3.6 ± 0.41,1.1,> 50,–,> 50,> 50,> 50,> 50,> 50,> 50,MIC99 (Mtb H37Rv [6]; [26]): >50 µM; Kd (CYP142 [14]): 3.2 ± 0.04 µM; IC50 (Mtb CDC1551 [9]; [27]): > 50 µM; IC50 (Mtb H37Rv [15]): > 50 µM; MIC99 (Mtb CDC1551 [10]; [26]): >50 µM
"COc1c(N2C[C@@H]3CCCN[C@@H]3C2)c(F)cc2c(=O)c(C(=O)O)cn(C3CC3)c12 [Moxifloxacin, moxifloxacin, reference compound]",–,–,–,–,–,–,–,–,–,–,–,IC50 (Mtb (Erdman)): 0.33 ± 0.01 µM
"Nc1ccc(C(=O)O)c(O)c1 [p-aminosalicylic acid, reference compound]",–,–,–,–,2.4 ± 0.12,0.29,< 0.04,–,0.04,2.3,0.04,"MIC99 (Mtb H37Rv [6]; Mycobacterium tuberculosis, H37RV, 336 h): 0.19 µM; IC50 (Mtb CDC1551 [9]; [27]): 0.07 µM; IC50 (Mtb H37Rv [15]): < 0.04 µM and 0.07 µM; MIC99 (Mtb CDC1551 [10]; Mycobacterium tuberculosis, CDC1551, 336 h): 0.39 µM"

# Source: publication PMC12305662, “Fragment-Based Development of Small Molecule Inhibitors Targeting Mycobacterium tuberculosis Cholesterol Metabolism” (Journal of Medicinal Chemistry, 2025)
